Columns and labels:
[1] = reported by Mikhlina et al; cited from earlier work
[2] = test system: gastric emptying of a test meal; assay: Effect on Gastric Emptying of a Test Meal in Rats; format: in vivo; settings: rat

Nc1ccc(C(=O)NC2CN3CCC2CC3)cc1 (centres unmarked) [4-amino-N-(1-azabicyclo[2.2.2]oct-3-yl)-benzamide]
reported activities [1]: hypotensive, narcotic and ganglionic stimulation and blocking activities

Cc1nc(COc2cc(N)c(Cl)cc2C(=O)N[C@H]2CN3CCC2CC3)cs1 [Example I (R)-isomer, (R)-(+)-4-Amino-N-(1-azabicyclo[2,2,2]oct-3-yl)-5-chloro-2-[(2-methyl-4-thiazolyl)methoxy]benzamide]
Gastric emptying: % change in meal emptied ([2]; 9.0 mg/kg IP): 34%

Cc1nc(COc2cc(N)c(Cl)cc2C(=O)N[C@@H]2CN3CCC2CC3)cs1 [Example I (S)-isomer, S-(-)-4-Amino-N-(1-azabicyclo[2,2,2]oct-3-yl)-5-chloro-2-[(2-methyl-4-thiazolyl)methoxy]benzamide]
Gastric emptying: % change in meal emptied ([2]; 9.0 mg/kg IP): 43%

Cc1nc(COc2cc(N)c(Cl)cc2C(=O)NC2CN3CCC2CC3)cs1 (centres unmarked) [Example I, 4-Amino-N-(1-azabicyclo[2,2,2]oct-3-yl)-5-chloro-2-[(2-methylthiazol-4-yl)methoxy]benzamide]
Gastric emptying: % change in meal emptied ([2]; 9.0 mg/kg IP): 36%

Nc1cc(OCc2ccccc2)c(C(=O)NC2CN3CCC2CC3)cc1Cl (centres unmarked) [Example V, 4-Amino-N-(1-azabicyclo[2.2.2]oct-3-yl)-5-chloro-2-(phenylmethoxy)benzamide]
Gastric emptying: % change in meal emptied ([2]; 1.0 mg/kg IP): 61%

Nc1cc(OCc2cccc(Cl)c2)c(C(=O)NC2CN3CCC2CC3)cc1Cl (centres unmarked) [Example VI, 4-Amino-N-(1-azabicyclo[2.2.2]oct-3-yl)-5-chloro-2-[(3-chlorophenyl)methoxy]benzamide]
Gastric emptying: % change in meal emptied ([2]; 1.0 mg/kg IP): 52%

Nc1cc(OCc2cccc(I)c2)c(C(=O)NC2CN3CCC2CC3)cc1Cl (centres unmarked) [Example VII, 4-Amino-N-(1-azabicyclo[2.2.2]oct-3-yl)-5-chloro-2-[(3-iodophenyl)methoxy]benzamide]
Gastric emptying: % change in meal emptied ([2]; 0.10 mg/kg IP): 28%

O=C(NC1CN2CCC1CC2)c1ccccc1 (centres unmarked) [N-(1-azabicyclo[2.2.2]oct-3-yl)benzamide]
reported activities [1]: hypotensive, narcotic and ganglionic stimulation and blocking activities

— patent publication US5236931A, “2-substituted benzamide and benzoate derivatives of 3-aminoquinuclidine and 3-quinuclidinol” (priority 1992, dated 1993)
